In one test the target is Ephrin type-A receptor 2 (Homo sapiens, UniProt P29317). Put plainly: Inhibition of recombinant human N-terminal His6-tagged EphA2 (N598 to R890 residues) expressed in baculovirus using poly-EY as substrate after 180 mins by luciferase coupled chemiluminescence assay.
The next test concerns the target T1, Ephrin type-B receptor 4 (Homo sapiens, UniProt P54760).
T1 sequence (P54760 whole entry): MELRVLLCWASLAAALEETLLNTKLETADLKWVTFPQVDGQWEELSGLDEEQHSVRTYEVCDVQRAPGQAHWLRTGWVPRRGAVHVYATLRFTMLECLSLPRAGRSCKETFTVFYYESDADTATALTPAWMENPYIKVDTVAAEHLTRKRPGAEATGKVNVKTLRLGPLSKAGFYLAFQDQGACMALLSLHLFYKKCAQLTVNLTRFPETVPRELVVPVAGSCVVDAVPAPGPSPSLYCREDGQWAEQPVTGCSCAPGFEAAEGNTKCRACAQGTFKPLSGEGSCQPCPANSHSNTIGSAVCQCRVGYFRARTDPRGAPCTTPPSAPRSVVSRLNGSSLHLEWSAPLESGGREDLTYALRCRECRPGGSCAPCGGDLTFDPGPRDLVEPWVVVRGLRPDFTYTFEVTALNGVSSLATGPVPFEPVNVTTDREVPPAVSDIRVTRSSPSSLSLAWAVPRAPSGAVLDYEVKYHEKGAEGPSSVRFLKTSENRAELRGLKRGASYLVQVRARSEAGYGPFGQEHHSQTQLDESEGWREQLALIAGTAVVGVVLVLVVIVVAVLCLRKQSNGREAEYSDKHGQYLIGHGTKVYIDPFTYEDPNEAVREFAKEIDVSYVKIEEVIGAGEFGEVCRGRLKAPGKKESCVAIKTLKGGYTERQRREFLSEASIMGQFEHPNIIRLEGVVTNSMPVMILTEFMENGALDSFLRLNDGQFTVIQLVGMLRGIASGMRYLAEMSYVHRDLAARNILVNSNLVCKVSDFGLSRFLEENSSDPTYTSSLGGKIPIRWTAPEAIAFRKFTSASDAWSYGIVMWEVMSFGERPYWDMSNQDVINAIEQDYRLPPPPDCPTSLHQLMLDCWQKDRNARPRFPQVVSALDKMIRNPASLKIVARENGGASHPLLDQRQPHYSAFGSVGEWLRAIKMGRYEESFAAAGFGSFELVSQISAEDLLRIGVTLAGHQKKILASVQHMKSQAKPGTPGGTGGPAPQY
Briefly: Inhibition of recombinant human N-terminal His6-tagged EphB4 kinase domain (E605 to E890 residues) expressed in baculovirus using poly-AEKY as substrate after 150 mins in presence of gamma33P-ATP by liquid scintillation spectrometry.

Test [1] has as its target Receptor tyrosine-protein kinase erbB-2 (Homo sapiens, UniProt P04626). Put plainly: Inhibition of recombinant human N-terminal GST His6-tagged thrombin cleavage site-fused ErbB2 kinase domain (Q679 to V1255 residues) expressed in baculovirus infected insect Sf9 cells using biotinylated poly-EY as substrate after 60 mins by alphascreen assay.
The target of test [2] is Vascular endothelial growth factor receptor 2 (Homo sapiens, UniProt P35968). Put plainly: Inhibition of recombinant human N-terminal GST-fused KDR (D807 to V1356 residues) expressed in baculovirus infected […] insect Sf9 cells using poly-EY as substrate after 240 mins by luciferase coupled chemiluminescence assay.
Sequence of Vascular endothelial growth factor receptor 2 (P35968 whole entry, the tested form may be a part): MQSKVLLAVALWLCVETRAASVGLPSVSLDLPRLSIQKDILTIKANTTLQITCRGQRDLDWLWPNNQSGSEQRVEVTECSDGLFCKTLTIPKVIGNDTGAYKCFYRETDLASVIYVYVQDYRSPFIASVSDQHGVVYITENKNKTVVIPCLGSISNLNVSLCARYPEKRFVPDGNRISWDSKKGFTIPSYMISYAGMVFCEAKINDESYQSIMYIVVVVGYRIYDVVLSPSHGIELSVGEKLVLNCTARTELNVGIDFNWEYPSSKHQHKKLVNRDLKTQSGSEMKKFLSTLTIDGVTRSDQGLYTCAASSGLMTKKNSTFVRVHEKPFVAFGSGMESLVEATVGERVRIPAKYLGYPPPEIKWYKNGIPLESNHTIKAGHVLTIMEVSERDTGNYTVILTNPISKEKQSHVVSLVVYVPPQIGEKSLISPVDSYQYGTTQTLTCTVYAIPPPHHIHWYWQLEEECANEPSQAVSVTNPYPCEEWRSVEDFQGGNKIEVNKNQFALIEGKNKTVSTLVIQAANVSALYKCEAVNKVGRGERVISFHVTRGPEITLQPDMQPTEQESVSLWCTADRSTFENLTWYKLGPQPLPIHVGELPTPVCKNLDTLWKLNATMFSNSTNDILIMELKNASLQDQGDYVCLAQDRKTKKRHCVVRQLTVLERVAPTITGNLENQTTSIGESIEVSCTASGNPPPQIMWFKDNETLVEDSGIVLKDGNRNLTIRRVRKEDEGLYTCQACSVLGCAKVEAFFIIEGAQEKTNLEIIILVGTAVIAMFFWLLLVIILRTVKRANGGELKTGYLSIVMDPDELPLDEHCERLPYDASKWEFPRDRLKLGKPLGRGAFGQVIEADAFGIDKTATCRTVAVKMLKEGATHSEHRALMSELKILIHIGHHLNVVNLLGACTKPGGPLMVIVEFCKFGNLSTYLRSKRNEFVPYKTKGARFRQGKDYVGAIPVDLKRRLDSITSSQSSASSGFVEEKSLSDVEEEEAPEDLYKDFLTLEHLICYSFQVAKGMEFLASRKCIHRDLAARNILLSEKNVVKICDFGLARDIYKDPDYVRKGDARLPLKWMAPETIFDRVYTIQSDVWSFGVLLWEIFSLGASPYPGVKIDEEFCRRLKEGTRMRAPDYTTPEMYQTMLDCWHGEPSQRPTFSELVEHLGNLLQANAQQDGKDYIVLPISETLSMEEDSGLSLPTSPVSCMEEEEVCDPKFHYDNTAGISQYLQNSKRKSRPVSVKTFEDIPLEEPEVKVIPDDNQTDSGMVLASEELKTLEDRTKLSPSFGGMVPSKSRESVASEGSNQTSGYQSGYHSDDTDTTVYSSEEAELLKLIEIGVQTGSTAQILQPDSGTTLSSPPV

Sequence of Receptor tyrosine-protein kinase erbB-2 (P04626 whole entry, the tested form may be a part): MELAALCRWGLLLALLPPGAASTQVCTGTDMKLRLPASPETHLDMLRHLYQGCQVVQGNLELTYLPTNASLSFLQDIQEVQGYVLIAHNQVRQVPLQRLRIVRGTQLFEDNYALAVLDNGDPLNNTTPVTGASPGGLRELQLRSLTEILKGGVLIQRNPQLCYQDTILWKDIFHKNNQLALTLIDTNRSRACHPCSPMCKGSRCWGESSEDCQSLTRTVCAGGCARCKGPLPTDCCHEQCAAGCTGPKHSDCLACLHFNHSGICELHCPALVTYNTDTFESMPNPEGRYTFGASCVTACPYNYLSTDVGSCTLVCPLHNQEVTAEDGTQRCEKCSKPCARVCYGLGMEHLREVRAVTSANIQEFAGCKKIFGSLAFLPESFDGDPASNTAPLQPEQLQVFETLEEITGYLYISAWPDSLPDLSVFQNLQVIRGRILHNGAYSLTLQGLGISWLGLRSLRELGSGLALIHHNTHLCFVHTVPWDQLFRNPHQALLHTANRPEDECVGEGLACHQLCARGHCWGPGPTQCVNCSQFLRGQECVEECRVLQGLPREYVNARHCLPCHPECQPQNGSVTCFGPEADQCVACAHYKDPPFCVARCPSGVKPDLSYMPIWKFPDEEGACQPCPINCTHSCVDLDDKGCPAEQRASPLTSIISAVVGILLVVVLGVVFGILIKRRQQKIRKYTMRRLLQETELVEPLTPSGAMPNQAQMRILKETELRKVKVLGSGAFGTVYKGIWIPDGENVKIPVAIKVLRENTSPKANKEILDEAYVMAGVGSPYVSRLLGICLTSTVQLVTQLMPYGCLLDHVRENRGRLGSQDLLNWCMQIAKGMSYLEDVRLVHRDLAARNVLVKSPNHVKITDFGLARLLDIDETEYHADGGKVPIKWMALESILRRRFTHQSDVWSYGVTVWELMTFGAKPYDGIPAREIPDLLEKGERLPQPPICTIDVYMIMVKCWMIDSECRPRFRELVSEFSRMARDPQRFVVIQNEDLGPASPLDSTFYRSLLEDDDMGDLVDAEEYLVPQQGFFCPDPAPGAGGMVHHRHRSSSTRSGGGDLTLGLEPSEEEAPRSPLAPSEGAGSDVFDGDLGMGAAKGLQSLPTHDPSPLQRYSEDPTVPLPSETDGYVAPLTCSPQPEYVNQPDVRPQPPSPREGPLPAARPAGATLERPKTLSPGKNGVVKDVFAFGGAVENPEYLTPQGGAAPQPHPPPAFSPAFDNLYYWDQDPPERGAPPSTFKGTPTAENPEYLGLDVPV
Sequence of Ephrin type-A receptor 2 (P29317 whole entry, the tested form may be a part): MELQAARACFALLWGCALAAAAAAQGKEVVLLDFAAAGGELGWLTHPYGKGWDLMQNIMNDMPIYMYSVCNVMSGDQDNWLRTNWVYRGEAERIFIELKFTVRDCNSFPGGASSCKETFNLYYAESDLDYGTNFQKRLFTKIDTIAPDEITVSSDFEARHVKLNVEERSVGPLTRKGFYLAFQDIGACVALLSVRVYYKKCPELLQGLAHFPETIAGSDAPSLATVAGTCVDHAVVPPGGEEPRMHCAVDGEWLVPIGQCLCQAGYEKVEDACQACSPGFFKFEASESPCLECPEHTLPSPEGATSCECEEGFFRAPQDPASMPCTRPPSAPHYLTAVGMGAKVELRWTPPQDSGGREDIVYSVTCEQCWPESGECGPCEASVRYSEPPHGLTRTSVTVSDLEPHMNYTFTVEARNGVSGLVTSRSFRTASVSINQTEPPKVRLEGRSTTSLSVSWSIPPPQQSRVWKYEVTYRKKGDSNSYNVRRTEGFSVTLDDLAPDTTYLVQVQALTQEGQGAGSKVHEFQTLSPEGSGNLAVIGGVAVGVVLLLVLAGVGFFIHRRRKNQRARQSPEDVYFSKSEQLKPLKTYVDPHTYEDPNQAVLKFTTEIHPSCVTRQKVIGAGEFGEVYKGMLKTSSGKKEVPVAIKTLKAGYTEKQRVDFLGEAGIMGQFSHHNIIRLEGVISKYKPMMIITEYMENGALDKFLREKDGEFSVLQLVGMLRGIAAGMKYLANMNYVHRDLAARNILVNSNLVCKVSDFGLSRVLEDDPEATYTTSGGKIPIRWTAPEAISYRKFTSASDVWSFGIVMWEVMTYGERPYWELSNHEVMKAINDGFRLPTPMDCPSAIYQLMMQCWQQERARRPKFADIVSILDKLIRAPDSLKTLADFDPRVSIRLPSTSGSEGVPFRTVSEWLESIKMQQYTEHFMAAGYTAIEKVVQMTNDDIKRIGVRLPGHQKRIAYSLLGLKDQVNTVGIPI

Turning to `COc1cc2c(Nc3ccc(Cl)c(Cl)c3)ncnc2cc1OCC1CN(CC(N)=O)CCO1` (configuration not stated), the concentration for half-maximal inhibition (IC50) was 50 to 1000 nM at Ephrin type-A receptor 2, under 50 nM on Ephrin type-B receptor 4, under 50 nM in test [1] and 50 to 1000 nM in test [2].

Take `COc1cc2c(Nc3cc(Cl)c(Br)cc3F)ncnc2cc1OCC1CN(C)C(C)(C)CO1` (configuration not stated): the 50% inhibitory concentration (IC50) on Ephrin type-A receptor 2 is under 50 nM; on Ephrin type-B receptor 4 it was under 50 nM; in test [1], 50 to 1000 nM; in test [2], under 50 nM.

Take `COc1cc2c(Nc3ccc(Cl)c(Cl)c3)ncnc2cc1OCCC1CN(C)C(C)(C)CO1` (configuration not stated): the IC50 (at Ephrin type-A receptor 2; at Ephrin type-B receptor 4; in test [1]; in test [2]) was 50 to 1000 nM in each case.

In the case of `CC(C)Oc1cc2c(Nc3ccc(Cl)c(Cl)c3)ncnc2cc1OCC1CN(C)CCO1` (configuration not stated), the half-inhibitory concentration (IC50) (at Ephrin type-A receptor 2; on Ephrin type-B receptor 4; in test [1]; in test [2]) was under 50 nM each time.

For `COc1cc2c(Nc3ccc(Cl)c(Cl)c3N3CCN(C)CC3)ncnc2cc1O[C@H]1CO[C@H]2[C@@H]1OC[C@@H]2F`, the half-inhibitory concentration (IC50) (at Ephrin type-A receptor 2; at Ephrin type-B receptor 4; in test [1]; in test [2]) was 1000 to 20000 nM each time.

For `COc1cc2c(Nc3ccc(Cl)c(Cl)c3Cl)ncnc2cc1OCC1CN(C)CCO1` (configuration not stated), the IC50 was under 50 nM at Ephrin type-A receptor 2, under 50 nM at Ephrin type-B receptor 4, 50 to 1000 nM in test [1] and under 50 nM in test [2].

For `COc1cc2c(Nc3ccc(Cl)c(Cl)c3)ncnc2cc1OCCC1CN(C(=O)OC(C)(C)C)C(C)(C)CO1` (configuration not stated), the concentration for half-maximal inhibition (IC50) (on Ephrin type-A receptor 2; on Ephrin type-B receptor 4; in test [1]; in test [2]) was 1000 to 20000 nM in each case.

For the compound `COc1cc2c(Nc3ccc(Br)c(Cl)c3C)ncnc2cc1OCC1CN(C)CCO1` (configuration not stated), the half-inhibitory concentration (IC50) (at Ephrin type-A receptor 2; at Ephrin type-B receptor 4; in test [1]; in test [2]) was 50 to 1000 nM each time.

Consider `COc1cc2c(Nc3ccc(Br)c(Cl)c3)ncnc2cc1O[C@@H]1CO[C@H]2[C@@H]1OC[C@@H]2O`, for which the 50% inhibitory concentration (IC50) at Ephrin type-A receptor 2 lay within 1000 to 20000 nM; on Ephrin type-B receptor 4, 50 to 1000 nM; in test [1], 50 to 1000 nM; in test [2] it was 1000 to 20000 nM.

Take `COc1cc2c(Nc3ccc(Br)c(Cl)c3)ncnc2cc1O[C@H]1CO[C@H]2[C@@H]1OC[C@@H]2N1CCOCC1`: the 50% inhibitory concentration (IC50) lay within 1000 to 20000 nM at Ephrin type-A receptor 2, 50 to 1000 nM on Ephrin type-B receptor 4, 1000 to 20000 nM in test [1] and 1000 to 20000 nM in test [2].

As for `COc1cc2c(Nc3ccc(Cl)c(Cl)c3F)ncnc2cc1OCC1CN(C)C(C)(C)CO1` (configuration not stated), the IC50 (at Ephrin type-A receptor 2; at Ephrin type-B receptor 4; in test [1]; in test [2]) was under 50 nM each time.

`COc1cc2c(Nc3ccc(Br)c(Cl)c3F)ncnc2cc1OC[C@@H]1CN(C)CC(=O)N1C`: the IC50 on Ephrin type-A receptor 2 lay within 50 to 1000 nM; at Ephrin type-B receptor 4, 50 to 1000 nM; in test [1], 1000 to 20000 nM; in test [2] it was 50 to 1000 nM.

As for `CC(C)Oc1cc2c(Nc3ccc(Cl)c(Cl)c3)ncnc2cc1OCC1CNCCO1` (configuration not stated), the IC50 (on Ephrin type-A receptor 2; on Ephrin type-B receptor 4; in test [1]; in test [2]) was under 50 nM each time.

For `COc1cc2c(Nc3cc(F)c(Br)c(F)c3)ncnc2cc1OCC1CN(C)CCO1` (configuration not stated), the concentration for half-maximal inhibition (IC50) at Ephrin type-A receptor 2 was 50 to 1000 nM; on Ephrin type-B receptor 4, 50 to 1000 nM; in test [1] it was 50 to 1000 nM; in test [2], under 50 nM.

As for `COc1cc2c(Nc3ccc(Cl)c(Cl)c3F)ncnc2cc1OCC1CN(C)CCO1` (configuration not stated), the half-maximal inhibitory concentration (IC50) (on Ephrin type-A receptor 2; at Ephrin type-B receptor 4; in test [1]; in test [2]) was under 50 nM in each case.

On to `COc1cc2c(Nc3ccc(Cl)c(Cl)c3)ncnc2cc1OCC1CN(C(=O)C2CCCC2)CCO1` (configuration not stated), for which the IC50 at Ephrin type-A receptor 2 is 50 to 1000 nM; at Ephrin type-B receptor 4, under 50 nM; in test [1] it was under 50 nM; in test [2] it was 50 to 1000 nM.

In the case of `CCN1CCc2nc(COc3cc4ncnc(Nc5ccc(Cl)c(Cl)c5)c4cc3OC)sc2C1`, the IC50 at Ephrin type-A receptor 2 was 50 to 1000 nM; at Ephrin type-B receptor 4, under 50 nM; in test [1], under 50 nM; in test [2], 50 to 1000 nM.

As for `COc1cc2c(Nc3ccc(N4CCN(C)CC4)cc3)ncnc2cc1O[C@H]1CO[C@H]2[C@@H]1OC[C@@H]2F`, the IC50 (at Ephrin type-A receptor 2; at Ephrin type-B receptor 4; in test [1]; in test [2]) was 1000 to 20000 nM each time.

On to `COc1cc2c(Nc3ccc(Br)c(Cl)c3)ncnc2cc1O[C@H]1CO[C@H]2[C@@H]1OC[C@@H]2SC`, for which the IC50 at Ephrin type-A receptor 2 lay in the range of 1000 to 20000 nM; at Ephrin type-B receptor 4, 50 to 1000 nM; in test [1] it was 1000 to 20000 nM; in test [2], 1000 to 20000 nM.

Consider `CCOc1cc2c(Nc3ccc(Cl)c(Cl)c3)ncnc2cc1OCC1CN(C)CCO1` (configuration not stated), for which the IC50 (at Ephrin type-A receptor 2; on Ephrin type-B receptor 4; in test [1]; in test [2]) was under 50 nM throughout.

In the case of `COc1cc2c(Nc3ccc(Br)c(Cl)c3Cl)ncnc2cc1OCC1CN(C)C(C)(C)CO1` (configuration not stated), the concentration for half-maximal inhibition (IC50) on Ephrin type-A receptor 2 is under 50 nM; on Ephrin type-B receptor 4 it was under 50 nM; in test [1], 50 to 1000 nM; in test [2], 50 to 1000 nM.

As for `COc1cc2c(Nc3ccc(Br)c(Cl)c3)ncnc2cc1O[C@H]1CO[C@H]2[C@@H]1OC[C@@H]2N1CCCC1`, the IC50 at Ephrin type-A receptor 2 lay within 1000 to 20000 nM; on Ephrin type-B receptor 4, 50 to 1000 nM; in test [1], 1000 to 20000 nM; in test [2] it was 1000 to 20000 nM.

As for `COc1cc2c(Nc3ccc(Cl)c(Cl)c3F)ncnc2cc1OC[C@@H]1CN(C)CC(=O)N1`, the IC50 (on Ephrin type-A receptor 2; at Ephrin type-B receptor 4; in test [1]; in test [2]) was 50 to 1000 nM in each case.

For the compound `CN/C(=N\C#N)N1CCOC(COc2cc3ncnc(Nc4ccc(Cl)c(C)c4)c3cc2OC)C1` (configuration not stated), the IC50 at Ephrin type-A receptor 2 was 50 to 1000 nM; at Ephrin type-B receptor 4, under 50 nM; in test [1], under 50 nM; in test [2], 50 to 1000 nM.

With `COc1cc2c(Nc3ccc(Br)c(Cl)c3F)ncnc2cc1OCC1CN(C)C(C)(C)CO1` (configuration not stated), the IC50 (on Ephrin type-A receptor 2; on Ephrin type-B receptor 4; in test [1]; in test [2]) was under 50 nM each time.

Turning to `CCCCN1CCOC(COc2cc3ncnc(Nc4ccc(Cl)c(Cl)c4)c3cc2OC)C1` (configuration not stated), the 50% inhibitory concentration (IC50) at Ephrin type-A receptor 2 was 50 to 1000 nM; on Ephrin type-B receptor 4 it was under 50 nM; in test [1], 50 to 1000 nM; in test [2] it was under 50 nM.

In the case of `COc1cc2c(Nc3cc(F)c(Br)cc3F)ncnc2cc1OCC1CN(C)CCO1` (configuration not stated), the IC50 on Ephrin type-A receptor 2 is 50 to 1000 nM; at Ephrin type-B receptor 4 it was 50 to 1000 nM; in test [1], 50 to 1000 nM; in test [2] it was under 50 nM.

In the case of `COc1cc2c(Nc3ccc(Br)c(Cl)c3)ncnc2cc1O[C@H]1CO[C@H]2[C@@H]1OC[C@@H]2S(C)(=O)=O`, the IC50 on Ephrin type-A receptor 2 is 1000 to 20000 nM; at Ephrin type-B receptor 4, 50 to 1000 nM; in test [1], 50 to 1000 nM; in test [2], 1000 to 20000 nM.

As to `COc1cc2c(Nc3ccc(N4CCN(C)CC4)c(Cl)c3Cl)ncnc2cc1O[C@H]1CO[C@H]2[C@@H]1OC[C@@H]2F`, the concentration for half-maximal inhibition (IC50) (at Ephrin type-A receptor 2; on Ephrin type-B receptor 4; in test [1]; in test [2]) was 1000 to 20000 nM in each case.

For the compound `COc1cc2c(Nc3ccc(Br)c(Cl)c3)ncnc2cc1O[C@H]1CO[C@H]2[C@@H]1OC[C@@H]2N1CCN(C)CC1`, the IC50 at Ephrin type-A receptor 2 was in the range of 1000 to 20000 nM; on Ephrin type-B receptor 4, 50 to 1000 nM; in test [1], 1000 to 20000 nM; in test [2], 1000 to 20000 nM.

Regarding `COc1cc2c(Nc3ccc(Cl)c(Cl)c3)ncnc2cc1OCc1csc(C2CCCN(C)C2)n1` (configuration not stated), the half-inhibitory concentration (IC50) (on Ephrin type-A receptor 2; on Ephrin type-B receptor 4; in test [1]; in test [2]) was 50 to 1000 nM throughout.

Turning to `COc1cc2c(Nc3ccc(Br)c(Cl)c3)ncnc2cc1O[C@H]1CO[C@H]2[C@@H]1OC[C@@H]2NC(C)=O`, the IC50 on Ephrin type-A receptor 2 lay in the range of 1000 to 20000 nM; at Ephrin type-B receptor 4 it was 50 to 1000 nM; in test [1], 1000 to 20000 nM; in test [2], 1000 to 20000 nM.

In the case of `COc1cc2c(Nc3ccc(Cl)c(Cl)c3)ncnc2cc1OCc1csc(N2CCN(C)CC2)n1`, the 50% inhibitory concentration (IC50) (at Ephrin type-A receptor 2; on Ephrin type-B receptor 4; in test [1]; in test [2]) was 50 to 1000 nM each time.

Values taken from ChEMBL document CHEMBL3882729, “Receptor-type kinase modulators and methods of use” (2009).
